According to PMC4452343, “Monitoring β-arrestin recruitment via β-lactamase enzyme fragment complementation: purification of peptide E as a low-affinity ligand for mammalian bombesin receptors” (PLoS ONE, 2015):

Legend:
hNMBR = biological target: T1, hNMBR (Homo sapiens, UniProt P28336); assay: NFAT-luciferase reporter assay in CHO cells expressing hNMBR; format: cell-based; conditions: 6 h incubation, read-out: EC50, activation of NFAT-promotor
T1 construct: expressed in transfected cells; host or cells: CHO cells stably expressing hNMBR
Procedure: CHO cells stably expressing the GPCR of interest were transiently transfected with NFAT-TA-Luc plasmid (Clontech). Cells were then left overnight before being plated in 96 well plates (20000 cells/well). After an additional 24 h, the synthetic ligands were added to the wells and incubated for 6 h. Following incubation, firefly luciferase assays were performed using the Steady-Glo Luciferase Assay System (Promega). Luminescence was detected with a plate reader (Victor V: Perkin Elmer), according to the manufacturer’s instructions. EC50 values were calculated using Workout 2.0 Data Analysis Software (Perkin Elmer).

hOX1R = assay: ß-lactamase EFC assay of ß-arrestin recruitment, OX1R reporter cells; format: cell-based, human; conditions: 14 h ligand incubation, CCF4/AM substrate
Procedure: CHO cells stably expressing both the GPCR-omega chimera and ß-arrestin 2-alpha chimera were plated either in 6 well plates or in 96 well plates. After 24 h, ligands or HPLC fractions were added to the wells, and incubated for 14 h. After incubation, cells were washed once in HBSS and then incubated with CCF4/AM substrate for 2 h. ß-lactamase activity was measured either by FACS or with a plate reader (Victor V: Perkin Elmer).

T1 sequence (P28336 whole entry): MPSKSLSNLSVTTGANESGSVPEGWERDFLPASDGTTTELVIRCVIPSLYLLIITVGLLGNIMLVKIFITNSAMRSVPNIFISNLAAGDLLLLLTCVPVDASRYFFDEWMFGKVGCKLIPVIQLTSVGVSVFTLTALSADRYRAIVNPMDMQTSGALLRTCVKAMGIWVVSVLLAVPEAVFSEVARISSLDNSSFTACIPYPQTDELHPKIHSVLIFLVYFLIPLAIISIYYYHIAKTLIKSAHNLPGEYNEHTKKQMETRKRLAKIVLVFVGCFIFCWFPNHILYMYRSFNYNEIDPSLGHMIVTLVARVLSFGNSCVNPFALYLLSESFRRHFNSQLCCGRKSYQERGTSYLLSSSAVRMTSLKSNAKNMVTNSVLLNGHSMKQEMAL

Molecule	EC50 (hNMBR) [nM]	Response in ß-lactamase EFC assay (ß-arrestin recruitment to OX1R) (hOX1R)
CSCC[C@H](NC(=O)[C@H](Cc1ccccc1)NC(=O)[C@H](Cc1cnc[nH]1)NC(=O)CNC(=O)[C@@H](NC(=O)[C@H](C)NC(=O)[C@H](Cc1c[nH]c2ccccc12)NC(=O)[C@H](CC(C)C)NC(=O)[C@H](CC(N)=O)NC(=O)CN)[C@@H](C)O)C(N)=O [NMB, neuromedin B]	0.16	
orexin-A (QPLPDCCRQKTCSCRLYELLHGAGNHAAGILTL) [unrelated peptide; ligand of orexin type 1 receptor, used as control]		responded specifically to orexin-A
